The source of these data is patent US11691992B2 (Anacor Pharmaceuticals, Inc., priority 2017, dated 2023).

Format in all cases: cell-based
The subject of assay [1] is bloodstream forms of T. b. rhodesiense STIB 900. Nature of the assay: T. brucei rhodesiense STIB 900 growth inhibition assay. Particulars: Trypanosoma brucei, 72 h. An outline of the steps: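 Bloodstream-form STIB 900 (10^4/well) were cultured in supplemented MEM with 15% horse serum and compound (90 to 0.123 μg/ml, 3-fold steps) for 72 h at 37 °C, 5% CO2. Viability was read by Alamar Blue fluorescence (ex 536/em 588 nm) after a further 2-4 h.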

In assay [2] the test system is L. infantum MHOM/MA(BE)/67 amastigotes in primary peritoneal mouse macrophages. Nature of the assay: Leishmania infantum intracellular amastigote assay in mouse macrophages. Particulars: Macrophage, 120 h. The essentials: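 Amastigotes harvested from infected hamster spleen infected primary peritoneal mouse macrophages (5×10^5 amastigotes/well, 2 h, 37 °C). Compounds then present 5 d at 37 °C, 5% CO2. Parasite burden counted by microscopy after Giemsa staining, as % of untreated controls; IC50 from sigmoidal variable-slope fit.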

Assay [3] deals with IL3000 T. congolense (drug sensitive) strain. Put plainly: In vitro Alamar Blue 72 h drug sensitivity assay for T. congolense. An outline of the steps:
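Bloodstream-form trypanosomes in HMI medium with 20% bovine serum, exposed to compound for 69 h at 34 °C, 5% CO2, then resazurin for 3 h more. Fluorescence read at 536/588 nm. IC50 from 11-point sigmoidal dose-response curves, at least three independent runs.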

The test system of assay [4] is TdTomato-modified T. cruzi (CL strain) in Vero cells. Nature of the assay: In vitro IC50 measurement of T. cruzi amastigote killing using TdTomato-modified T. cruzi (CL strain). The following applies: Trypanosoma cruzi, 72 h, fluorescence, read-out: IC50: I Org. amastigote Growth T. cruzi CL TdTomato, 3 d. An outline of the steps:
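Vero cells were infected with tdTomato-expressing CL-strain parasites and dosed at 5 uM–5 nM. Fluorescence (ex 544/em 612 nm) was read at day 0 and again after 72 h at 37 °C, with day 0 values subtracted. IC50 and IC90 came from nonlinear regression.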

For assay [5], the system named is Trypanosoma brucei rhodesiense STIB 900 strain. Nature of the assay: Trypanosoma brucei rhodesiense STIB 900 screening assay. The following applies: STIB 900 bloodstream forms, 72 h, Alamar Blue, protocol of Example 114, read-out: Swiss TPH T b rhodesiense IC50. Here is the method: Example 114. Trypanosoma brucei rhodesiense STIB 900 Screening Assay Procedure
The Trypanosoma brucei rhodesiense STIB 900 strain was isolated in 1982 from a human patient in Tanzania and after several mouse passages cloned and adapted to axenic culture conditions (Baltz, et al., EMBO Journal 4: 1273-1277 (1985); Thuita, et al., Acta Tropica 108: 6-10 (2008)). Minimum Essential Medium (50 μL) supplemented with 25 mM HEPES, 1 g/L additional glucose, 1% MEM non-essential amino acids (100×), 0.2 mM 2-mercaptoethanol, 1 mM Na-pyruvate and 15% heat inactivated horse serum was added to each well of a 96-well microtiter plate. Serial drug dilutions of seven 3-fold steps covering a range from 90 to 0.123 μg/mL were prepared. Then 10^4 bloodstream forms of T. b. rhodesiense STIB 900 in 50 μL was added to each well and the plate incubated at 37° C. under a 5% CO2 atmosphere for 72 h. 10 μL Alamar Blue (resazurin, 12.5 mg in 100 mL double-distilled water) was then added to each well and incubation continued for a further 2-4 h (Raz, et al., Acta Tropica 68: 139-47 (1997)). Then the plates were read with a Spectramax Gemini XS microplate fluorometer (Molecular Devices Corporation, Sunnyvale, Calif., USA) using an excitation wavelength of 536 nm and an emission wavelength of 588 nm. Data were transferred into the graphic program Softmax Pro (Molecular Devices), which calculated IC50 values.

For assay [6], the system named is bloodstream-form trypanosome T. brucei brucei 427 strain. Put plainly: Trypanosoma brucei brucei high-throughput screening assay (resazurin). As to the method: Example 105. Trypanosoma brucei brucei High-Throughput Screening Assay Procedure
All experiments were conducted with the bloodstream-form trypanosome T. brucei brucei 427 strain obtained from Seattle Biomedical Research Institute (Seattle, Wash.). Parasites were cultured in T-25 vented cap flasks and kept in humidified incubators at 37° C. and 5% CO2. The parasite culture media was complete HMI-9 medium containing 10% FBS, 10% Serum Plus medium and penicillin/streptomycin. To ensure log growth phase, trypanosomes were sub-cultured at appropriate dilutions every 2-3 days. Approximately 50 microliters of log phase cultures were diluted 1:10 in HMI-9 and 10 μL of the diluted culture was removed and counted using a hemocytometer to determine parasite concentration. Parasites were diluted by addition of an appropriate volume of HMI-9 to achieve a final parasite concentration of 2×10^5/mL. Compounds of the invention to be tested were serially diluted in DMSO and 0.5 μL added to 49.5 μL HMI-9 in triplicate 96-well plates using a Biomek NX liquid handler. Parasites from the diluted stock were added to each well (50 μL) using a Multidrop 384 dispenser to give a final concentration of 1.0×10^5/ml parasites in […] for DMSO. Trypanosomes were incubated with compounds for 72 hrs at 37° C. with 5% CO2. Resazurin (20 μL of 12.5 mg/ml stock) from Sigma-Aldrich was added to each well and plates were incubated for an additional 2-4 hrs. Assay plates were read using an EnVision plate reader at an excitation wavelength of 544 nm and emission of 590 nm. Triplicate data points were averaged to generate sigmoidal dose response curve and determine IC50 values using XLfit curve fitting software from IDBS (Guildford, UK).

The mark [7] stands for this setting: bloodstream forms, Alamar Blue, protocol of Example 110, read-out: IC50: I Org. Growth T. brucei rhodesiense STIB 900, 3 d.
Where [8] appears, read: amastigotes in primary peritoneal mouse macrophages, 5 d, Giemsa staining, read-out: Inhibition of Organism Growth in Leishmania infantum MHOM/MA/BE/67, 5 d.
Setting [9] is: Trypanosoma congolense; bloodstream form, 69 h + 3 h resazurin, 34° C.; classes A-C; read-out: IC50: I Org. Growth T. congolense IL-3000, 3 d.
The mark [10] stands for this setting: bloodstream form, 72 hrs incubation, resazurin, read-out: IC50: I Org. Growth T. brucei brucei SBRI 427, 3 d.
Where [11] appears, read: read-out: IC50: I Org. Growth T. brucei rhodesiense STIB 900, 3 d [uM].
The mark [12] stands for this setting: read-out: Inhibition of Organism Growth in Leishmania infantum MHOM/MA/BE/67, 5 d [uM].
Where [13] appears, read: 72 h, read-out: IC50: I Org. Growth T. brucei brucei SBRI 427, 3 d [uM].
[14] abbreviates: Trypanosoma congolense; read-out: inhibition of T. congolense IL-3000 growth at a concentration of 1.0 μM (classes D, E).

Read-outs that look alike come from different tables or passages of the source. Some results are limits rather than exact numbers.

With `Cc1cccc(-n2cc(C(=O)Nc3ccc4c(c3)B(O)OC4)nn2)n1` [Example 57, N-(1-hydroxy-1,3-dihydrobenzo[c][1,2]oxaborol-6-yl)-1-(6-methylpyridin-2-yl)-1H-1,2,3-triazole-4-carboxamide], the IC50 in assay [1] (setting [7]) was less than 0.1 µM; in assay [2] (setting [8]), less than 3 µM; in assay [3] (setting [9]), less than 100 nM; in assay [4], less than 600 nM; in assay [5] it was less than 100 nM.
For `O=C(Nc1ccc2c(c1)B(O)OC2)c1cn(-c2cccnc2)nn1` [Example 63, N-(1-hydroxy-1,3-dihydrobenzo[c][1,2]oxaborol-6-yl)-1-(pyridin-3-yl)-1H-1,2,3-triazole-4-carboxamide], the IC50 was 0.1 to 0.3 µM in assay [1] (setting [7]); 20 to 100 µM in assay [2] (setting [8]); less than 100 nM in assay [3] (setting [9]); 1100 to 10000 nM in assay [4]; 100 to 250 nM in assay [5].
Regarding `COc1cccc(-n2nnc(C(=O)Nc3ccc4c(c3)B(O)OC4)c2C)n1` [Example 65, N-(1-hydroxy-1,3-dihydrobenzo[c][1,2]oxaborol-6-yl)-1-(6-methoxypyridin-2-yl)-5-methyl-1H-1,2,3-triazole-4-carboxamide], the IC50 in assay [1] (setting [7]) was less than 0.1 µM; in assay [2] (setting [8]), less than 3 µM; in assay [3] (setting [9]), less than 100 nM; in assay [4], less than 600 nM; in assay [5] it was less than 100 nM.
In the case of `Cn1nc(C(=O)Nc2ccc3c(c2)B(O)OC3)nc1-c1ccccn1` [Example 80, N-(1-hydroxy-1,3-dihydrobenzo[c][1,2]oxaborol-6-yl)-1-methyl-5-(pyridin-2-yl)-1H-1,2,4-triazole-3-carboxamide], the IC50 in assay [1] (setting [7]) is 0.1 to 0.3 µM; in assay [2] (setting [8]), less than 3 µM; in assay [3] (setting [9]) it was 100 to 300 nM; in assay [6] (setting [10]), less than 0.075 µM.
`Cc1cccc(-n2nnc(C(=O)Nc3ccc4c(c3)B(O)OC4)c2C)n1` [Example 81, N-(1-hydroxy-1,3-dihydrobenzo[c][1,2]oxaborol-6-yl)-5-methyl-1-(6-methylpyridin-2-yl)-1H-1,2,3-triazole-4-carboxamide]: the IC50 in assay [1] (setting [7]) is 0.1 to 0.3 µM; in assay [2] (setting [8]), 3 to 19.9 µM; in assay [3] (setting [9]), less than 100 nM; in assay [4] it was 1100 to 10000 nM; in assay [5], 100 to 250 nM.
Take `Cc1c(C(=O)Nc2ccc3c(c2)B(O)OC3)nnn1-c1ccc(Cl)cc1` [Example 90, 1-(4-chlorophenyl)-N-(1-hydroxy-1,3-dihydrobenzo[c][1,2]oxaborol-6-yl)-5-methyl-1H-1,2,3-triazole-4-carboxamide]: the IC50 in assay [6] (setting [10]) lay within 0.075 to 0.15 µM.
`O=C(Nc1ccc2c(c1)B(O)OC2)c1nc(-c2ccccn2)n[nH]1` [Example 94, N-(1-hydroxy-1,3-dihydrobenzo[c][1,2]oxaborol-6-yl)-3-(pyridin-2-yl)-1H-1,2,4-triazole-5-carboxamide]: the IC50 in assay [1] (setting [11]) is less than 0.1 µM; in assay [2] (setting [12]), 3 to 19.9 µM; in assay [6] (setting [13]), less than 0.075 µM. In assay [3] (Trypanosoma congolense, read-out: inhibition of T. congolense IL-3000 growth at a concentration of 1.0 μM (classes D, E)), the inhibition at 1 µM is greater than 75%.
With `Cn1nc(-c2ccccn2)nc1C(=O)Nc1ccc2c(c1)B(O)OC2` [Example 95, N-(1-hydroxy-1,3-dihydrobenzo[c][1,2]oxaborol-6-yl)-1-methyl-3-(pyridine-2-yl)-1H-1,2,4-triazole-5-carboxamide], the IC50 in assay [6] (setting [13]) was in the range of 0.151 to 10 µM.
Take `Cn1nc(-c2ccccc2)nc1C(=O)Nc1ccc2c(c1)B(O)OC2` [Example 96, N-(1-hydroxy-1,3-dihydrobenzo[c][1,2]oxaborol-6-yl)-1-methyl-3-phenyl-1H-1,2,4-triazole-5-carboxamide]: the inhibition at 1 µM in assay [3] (setting [14]) is less than 75%. The IC50 in assay [6] (setting [10]) lay in the range of 0.151 to 10 µM.
In the case of `Cn1nc(-c2ccc(F)cc2)nc1C(=O)Nc1ccc2c(c1)B(O)OC2` [Example 97, 3-(4-fluorophenyl)-N-(1-hydroxy-1,3-dihydrobenzo[c][1,2]oxaborol-6-yl)-1-methyl-1H-1,2,4-triazole-5-carboxamide], the inhibition at 1 µM in assay [3] (setting [14]) was less than 75%. Further, the IC50 in assay [6] (setting [10]) was in the range of 0.151 to 10 µM.
As for `O=C(Nc1ccc2c(c1)B(O)OC2)c1nc(-c2cccnc2)n[nH]1` [Example 98, N-(1-hydroxy-1,3-dihydrobenzo[c][1,2]oxaborol-6-yl)-3-(pyridin-3-yl)-1H-1,2,4-triazole-5-carboxamide], the IC50 in assay [6] (setting [13]) was 0.151 to 10 µM.
On to `O=C(Nc1ccc2c(c1)B(O)OC2)c1nc(-c2ccc(F)cc2)n[nH]1` [Example 99, 3-(4-Fluorophenyl)-N-(1-hydroxy-1,3-dihydrobenzo[c][1,2]oxaborol-6-yl)-1H-1,2,4-triazole-5-carboxamide], for which the IC50 in assay [1] (setting [11]) is 0.1 to 0.3 µM; in assay [2] (setting [12]) it was less than 3 µM; in assay [6] (setting [13]) it was less than 0.075 µM.
For `Cn1nc(C(=O)Nc2ccc3c(c2)B(O)OC3)nc1-c1ccc(F)cc1` [Example 100, 5-(4-Fluorophenyl)-N-(1-hydroxy-1,3-dihydrobenzo[c][1,2]oxaborol-6-yl)-1-methyl-1H-1,2,4-triazole-3-carboxamide], the IC50 in assay [6] (setting [10]) was 0.075 to 0.15 µM.
Take `O=C(Nc1ccc2c(c1)B(O)OC2)c1nc(-c2ccccc2)n[nH]1` [Example 101, N-(1-hydroxy-1,3-dihydrobenzo[c][1,2]oxaborol-6-yl)-3-phenyl-1H-1,2,4-triazole-5-carboxamide]: the inhibition at 1 µM in assay [3] (setting [14]) was greater than 75%. Further, the IC50 in assay [6] (setting [10]) fell in the range of 0.075 to 0.15 µM.
In the case of `Cn1nc(C(=O)Nc2ccc3c(c2)B(O)OC3)nc1-c1ccccc1` [Example 102, N-(1-Hydroxy-1,3-dihydrobenzo[c][1,2]oxaborol-6-yl)-1-methyl-5-phenyl-1H-1,2,4-triazole-3-carboxamide], the IC50 in assay [1] (setting [7]) was less than 0.1 µM; in assay [2] (setting [8]), less than 3 µM; in assay [6] (setting [10]), 0.075 to 0.15 µM.
For `Cn1nc(C(=O)Nc2ccc3c(c2)B(O)OC3(C)C)nc1-c1ccccc1` [Example 103, N-(1-hydroxy-3,3-dimethyl-1,3-dihydrobenzo[c][1,2]oxaborol-6-yl)-1-methyl-5-phenyl-1H-1,2,4-triazole-3-carboxamide], the IC50 in assay [1] (setting [7]) is 0.31 to 10 µM; in assay [2] (setting [8]), 3 to 19.9 µM; in assay [5] it was less than 100 nM.
